In ChEMBL document CHEMBL1201862, “PubChem BioAssay data set” (2004):
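In this assay, cells in 96-well plates receive the compound at five concentrations for 48 hours. Endpoints are linearly interpolated between the surrounding concentrations. GI50 marks 50% less growth.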 Active and inactive are the calls of the source. Cut-off read from the data, not from the text of the source: active = GI50 up to about 1.1 µM and inactive = higher.

Tests used:
Assay in all cases: NCI anticancer screen, dose series, 48 h
CAKI-1 = tested on: CAKI-1
HOP-62 = tested on: HOP-62
SF-539 = tested on: SF-539
RPMI-8226 = tested on: RPMI-8226
K562 = tested on: K562
OVCAR-8 = tested on: OVCAR-8
NCI-H23 = tested on: NCI-H23
NCI-H522 = tested on: NCI-H522
NCI-H226 = tested on: NCI-H226
UACC-257 = tested on: UACC-257
OVCAR-4 = tested on: OVCAR-4
BT-549 = tested on: BT-549
RXF 393 = tested on: RXF 393
LOX IMVI = tested on: LOX IMVI
M14 = tested on: M14
MDA-MB-231 = tested on: MDA-MB-231
SNB-75 = tested on: SNB-75
HL-60 = tested on: HL-60
COLO 205 = tested on: COLO 205

Compound	GI50 (CAKI-1)	GI50 (HOP-62)	GI50 (SF-539)	GI50 (RPMI-8226)	GI50 (K562)	GI50 (OVCAR-8)	GI50 (NCI-H23)	GI50 (NCI-H522)	GI50 (NCI-H226)	GI50 (UACC-257)	GI50 (OVCAR-4)	GI50 (BT-549)	GI50 (RXF 393)	GI50 (LOX IMVI)	GI50 (M14)	GI50 (MDA-MB-231)	GI50 (SNB-75)	GI50 (HL-60)	GI50 (COLO 205)
O=CC1C(Cl)=Nc2nc3ccccc3n2C1c1ccccc1 (stereo not drawn)	21.4 µM (inactive)	18.1 µM (inactive)	18.1 µM (inactive)	14 µM (inactive)	15.2 µM (inactive)	21.4 µM (inactive)	23.4 µM (inactive)	14.3 µM (inactive)	20.2 µM (inactive)	22.6 µM (inactive)	15.2 µM (inactive)	15.2 µM (inactive)	13.7 µM (inactive)	15.5 µM (inactive)	23.7 µM (inactive)	17.1 µM (inactive)	17 µM (inactive)	20 µM (inactive)	19.2 µM (inactive)
Cn1c(SCc2ccc([N+](=O)[O-])cc2)nnc1C12CC3CC(CC(C3)C1)C2	> 10 µM (inactive)	> 10 µM (inactive)	> 10 µM (inactive)	> 10 µM (inactive)	> 10 µM (inactive)	> 10 µM (inactive)	> 10 µM (inactive)	> 10 µM (inactive)	> 10 µM (inactive)	–	> 10 µM (inactive)	> 10 µM (inactive)	> 10 µM (inactive)	> 10 µM (inactive)	> 10 µM (inactive)	> 10 µM (inactive)	4.66 µM (inactive)	> 10 µM (inactive)	> 10 µM (inactive)
COc1ccc([C@@]23OC[C@@H]4[C@@H](OC[C@@H]42)c2cc(OC)c(OC)cc23)cc1OC	> 100 µM (inactive)	> 100 µM (inactive)	> 100 µM (inactive)	> 100 µM (inactive)	> 100 µM (inactive)	–	> 100 µM (inactive)	> 100 µM (inactive)	> 100 µM (inactive)	–	> 100 µM (inactive)	> 100 µM (inactive)	> 100 µM (inactive)	> 100 µM (inactive)	> 100 µM (inactive)	> 100 µM (inactive)	> 100 µM (inactive)	> 100 µM (inactive)	> 100 µM (inactive)
CSc1c2c(C)n[nH]c2nn1-c1ccccc1	21.1 µM (inactive)	–	40.4 µM (inactive)	> 100 µM (inactive)	47.5 µM (inactive)	27.4 µM (inactive)	> 100 µM (inactive)	5.01 µM (inactive)	58.5 µM (inactive)	> 100 µM (inactive)	53.7 µM (inactive)	80 µM (inactive)	30.6 µM (inactive)	24.1 µM (inactive)	81.7 µM (inactive)	18.4 µM (inactive)	> 100 µM (inactive)	29.6 µM (inactive)	62.2 µM (inactive)
N=C(N)N/N=C/c1c(-c2ccc([N+](=O)[O-])cc2)nc2sc(Cl)cn12	1.67 µM (inactive)	0.635 µM (active)	1.89 µM (inactive)	1.32 µM (inactive)	0.239 µM (active)	0.479 µM (active)	0.841 µM (active)	1.48 µM (inactive)	1.76 µM (inactive)	–	0.441 µM (active)	1.8 µM (inactive)	0.67 µM (active)	0.871 µM (active)	1.37 µM (inactive)	0.262 µM (active)	0.593 µM (active)	1.38 µM (inactive)	0.658 µM (active)
Fc1ccc2c(c1)nc1n2C(c2c(Cl)cccc2Cl)SC1 (stereo not drawn)	12.3 µM (inactive)	14.4 µM (inactive)	18.1 µM (inactive)	13.4 µM (inactive)	–	15.6 µM (inactive)	13.1 µM (inactive)	14.7 µM (inactive)	17.3 µM (inactive)	13.5 µM (inactive)	15 µM (inactive)	16.7 µM (inactive)	17.3 µM (inactive)	15 µM (inactive)	16.4 µM (inactive)	15.3 µM (inactive)	13 µM (inactive)	12.3 µM (inactive)	16.7 µM (inactive)
